From patent US8008291B2 (Mimetica Pty Ltd, priority 2008, dated 2011)

These compounds were tested against T1, human MC5R (hMC5R) (Homo sapiens, UniProt P33032) (assay: Human MC5R radioligand binding assay (membranes, [125I] NDP-MSH displacement)). Details: hMC5R binding; tested as trifluoroacetate or hydrochloride salts, or free bases; read-out: MC5R radioligand IC50.
T1 construct: purchased Perkin Elmer RBXMC5M400UA
Outline: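 Displacement of [125I]NDP-MSH (radioiodinated in house, HPLC-purified) from hMC5R membranes by test compound measured after 1 hr incubation at 37° C.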

T1 sequence (P33032 whole entry): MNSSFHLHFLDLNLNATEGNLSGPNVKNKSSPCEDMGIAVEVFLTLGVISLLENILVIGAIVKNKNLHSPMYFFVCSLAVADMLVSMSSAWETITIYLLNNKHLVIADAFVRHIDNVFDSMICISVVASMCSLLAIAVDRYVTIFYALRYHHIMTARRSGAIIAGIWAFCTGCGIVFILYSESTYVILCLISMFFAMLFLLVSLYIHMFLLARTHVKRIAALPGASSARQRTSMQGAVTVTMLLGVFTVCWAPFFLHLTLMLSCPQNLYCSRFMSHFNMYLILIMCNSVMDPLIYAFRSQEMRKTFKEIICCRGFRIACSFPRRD

Question: Which IC50 does the source give for `N=C(N)NCCC[C@@H]1N[C@H](CNC(=O)Cc2c[nH]c3ccccc23)CCN(CC2CCCCC2)C1=O` [Compound 481, N-(((3S,5S)-1-(cyclohexylmethyl)-3-(3-guanidinopropyl)-2-oxo-1,4-diazepan-5-yl)methyl)-2-(1 H-indol-3-yl)acetamide] here?
Answer: < 0.1 µM

Question: Which IC50 does the source give for `N=C(N)NCCC[C@@H]1N[C@H](CNC(=O)c2cnc3ccccc3c2)CCN(CC2CCCCC2)C1=O` [Compound 482, N-(((3S,5S)-1-(cyclohexylmethyl)-3-(3-guanidinopropyl)-2-oxo-1,4-diazepan-5-yl)methyl)quinoline-3-carboxamide] here?
Answer: < 1 µM

Question: For `CC[C@H](CN1CC[C@@H](CNC(=O)c2ccc(Cl)c(Cl)c2)N[C@@H](CCN2CCC(F)(F)CC2)C1=O)c1ccccc1` [Compound 483, 3,4-dichloro-N-(((3S,5S)-3-(2-(4,4-difluoropiperidin-1-yl)ethyl)-2-oxo-1-((S)-2-phenylbutyl)-1,4-diazepan-5-yl)methyl)benzamide], which IC50 is on record?
Answer: < 0.1 µM

Question: With `CC[C@H](CN1CC[C@@H](CNC(=O)c2ccc(Cl)c(Cl)c2)N[C@@H](CCN2CCCC(F)(F)C2)C1=O)c1ccccc1` [Compound 484, 3,4-dichloro-N-(((3S,5S)-3-(2-(3,3-difluoropiperidin-1-yl)ethyl)-2-oxo-1-((S)-2-phenylbutyl)-1,4-diazepan-5-yl)methyl)benzamide] as the compound, how does the IC50 read?
Answer: < 1 µM

Question: For `CC[C@H](CN1CC[C@@H](CNCc2ccc(Cl)c(Cl)c2)N[C@@H](CCN2CCCCC2)C1=O)c1ccccc1` [Compound 485, (3S,5S)-5-((3,4-dichlorobenzylamino)methyl)-1-((S)-2-phenylbutyl)-3-(2-(piperidin-1-yl)ethyl)-1,4-diazepan-2-one], which IC50 is on record?
Answer: < 0.1 µM

Question: Which IC50 does the source give for `CCC(CN1CC[C@@H](CNC(=O)c2ccc(Cl)c(Cl)c2)N[C@@H](CCN2CCCCC2)C1=O)C1CC1` (stereo partly drawn) [Compound 486, 3,4-dichloro-N-(((3S,5S)-1-(2-cyclopropylbutyl)-2-oxo-3-(2-(piperidin-1-yl)ethyl)-1,4-diazepan-5-yl)methyl)benzamide] here?
Answer: < 1 µM

Question: For `CCC(CN1CC[C@@H](CNC(=O)c2ccc3cc(Cl)ccc3c2)N[C@@H](CCN)C1=O)C1CC1` (stereo partly drawn) [Compound 487, N-(((3S,5S)-3-(2-aminoethyl)-1-(2-cyclopropylbutyl)-2-oxo-1,4-diazepan-5-yl)methyl)-6-chloro-2-naphthamide], which IC50 is on record?
Answer: < 1 µM

Question: Which IC50 does the source give for `CCC(CN1CC[C@@H](CNC(=O)c2ccc3cc(Cl)ccc3c2)N[C@@H](CCN2CCCCC2)C1=O)C1CC1` (stereo partly drawn) [Compound 488, 6-chloro-N-(((3S,5S)-1-(2-cyclopropylbutyl)-2-oxo-3-(2-(piperidin-1-yl)ethyl)-1,4-diazepan-5-yl)methyl)-2-naphthamide] here?
Answer: < 0.1 µM

Question: How did the IC50 turn out when `CC[C@H](CN1CC[C@@H](CNC(=O)c2ccc(Cl)c(Cl)c2)N[C@@H](CCN2C(=O)CCC2=O)C1=O)c1ccccc1` [Compound 489, 3,4-dichloro-N-(((3S,5S)-3-(2-(2,5-dioxopyrrolidin-1-yl)ethyl)-2-oxo-1-((S)-2-phenylbutyl)-1,4-diazepan-5-yl)methyl)benzamide] was run?
Answer: < 10 µM

Question: How did the IC50 turn out when `CC[C@H](CN1CC[C@@H](CNC(=O)c2ccc3cc(Cl)ccc3c2)N[C@@H](CCCNC(N)=O)C1=O)c1ccccc1` [Compound 490, 6-chloro-N-(((3S,5S)-2-oxo-1-((S)-2-phenylbutyl)-3-(3-ureidopropyl)-1,4-diazepan-5-yl)methyl)-2-naphthamide] was run?
Answer: < 1 µM

Question: How did the IC50 turn out when `CC[C@H](CN1CC[C@@H](CNC(=O)c2ccc(Cl)c(Cl)c2)N[C@@H](CCNC(C)C(F)(F)F)C1=O)c1ccccc1` (stereo partly drawn) [Compound 491, 3,4-dichloro-N-(((3S,5S)-2-oxo-1-((S)-2-phenylbutyl)-3-(2-(1,1,1-trifluoropropan-2-ylamino)ethyl)-1,4-diazepan-5-yl)methyl)benzamide] was run?
Answer: < 1 µM

Question: `CC[C@H](CN1CC[C@@H](CNC(=O)c2ccc(Cl)c(Cl)c2)N[C@@H](CCN2C(=O)CC(C)(C)C2=O)C1=O)c1ccccc1` [Compound 492, 3,4-dichloro-N-(((3S,5S)-3-(2-(3,3-dimethyl-2,5-dioxopyrrolidin-1-yl)ethyl)-2-oxo-1-((S)-2-phenylbutyl)-1,4-diazepan-5-yl)methyl)benzamide] was tested. Which IC50 did it give?
Answer: < 10 µM

Question: Which IC50 does the source give for `CC[C@H](CN1CC[C@@H](CNC(=O)c2ccc3cc(Cl)ccc3c2)N[C@@H](CCN2CCCCCC2)C1=O)c1ccccc1` [Compound 493, N-(((3S,5S)-3-(2-(azepan-1-yl)ethyl)-2-oxo-1-((S)-2-phenylbutyl)-1,4-diazepan-5-yl)methyl)-6-chloro-2-naphthamide] here?
Answer: < 0.1 µM

Question: Which IC50 does the source give for `CC[C@H](CN1CC[C@@H](CNC(=O)c2ccc3cc(Cl)ccc3c2)N[C@@H](CCNC(=O)NC(C)C)C1=O)c1ccccc1` [Compound 494, 6-chloro-N-(((3S,5S)-3-(2-(3-isopropylureido)ethyl)-2-oxo-1-((S)-2-phenylbutyl)-1,4-diazepan-5-yl)methyl)-2-naphthamide] here?
Answer: < 1 µM

Question: For `CC[C@H](CN1CC[C@@H](CNC(=O)c2ccc(-c3ccccc3)cc2)N[C@@H](CCN2CCCCC2)C1=O)c1ccccc1` [Compound 495, N-(((3S,5S)-2-oxo-1-((S)-2-phenylbutyl)-3-(2-(piperidin-1-yl)ethyl)-1,4-diazepan-5-yl)methyl)biphenyl-4-carboxamide], which IC50 is on record?
Answer: < 0.1 µM

Question: For `CC[C@H](CN1CC[C@@H](CNC(=O)c2csc(-c3ccccc3)n2)N[C@@H](CCN2CCCCC2)C1=O)c1ccccc1` [Compound 496, N-(((3S,5S)-2-oxo-1-((S)-2-phenylbutyl)-3-(2-(piperidin-1-yl)ethyl)-1,4-diazepan-5-yl)methyl)-2-phenylthiazole-4-carboxamide], which IC50 is on record?
Answer: < 0.1 µM

Question: How did the IC50 turn out when `CC[C@H](CN1CC[C@@H](CNC(=O)c2ccccc2-c2ccc(Cl)cc2)N[C@@H](CCN2CCCCC2)C1=O)c1ccccc1` [Compound 497, 4′-chloro-N-(((3S,5S)-2-oxo-1-((S)-2-phenylbutyl)-3-(2-(piperidin-1-yl)ethyl)-1,4-diazepan-5-yl)methyl)biphenyl-2-carboxamide] was run?
Answer: < 0.1 µM

Question: For `CC[C@H](CN1CC[C@@H](CNC(=O)c2ccc3cc(Cl)ccc3c2)N[C@@H](CCN(C(C)=O)C(C)C)C1=O)c1ccccc1` [Compound 498, 6-chloro-N-(((3S,5S)-3-(2-(N-isopropylacetamido)ethyl)-2-oxo-1-((S)-2-phenylbutyl)-1,4-diazepan-5-yl)methyl)-2-naphthamide], which IC50 is on record?
Answer: < 1 µM

Question: For `CC[C@H](CN1CC[C@@H](CNC(=O)c2ccc3cc(Cl)ccc3c2)N[C@@H](CNC(C)C)C1=O)c1ccccc1` [Compound 499, 6-chloro-N-(((3S,5S)-3-((isopropylamino)methyl)-2-oxo-1-((S)-2-phenylbutyl)-1,4-diazepan-5-yl)methyl)-2-naphthamide], which IC50 is on record?
Answer: < 0.1 µM

Question: How did the IC50 turn out when `CC[C@H](CN1CC[C@@H](CNC(=O)c2ccc3cc(Cl)ccc3c2)N[C@@H](CNC(=N)N)C1=O)c1ccccc1` [Compound 500, 6-chloro-N-(((3S,5S)-3-(guanidinomethyl)-2-oxo-1-((S)-2-phenylbutyl)-1,4-diazepan-5-yl)methyl)-2-naphthamide] was run?
Answer: < 0.1 µM

Question: For `NCC[C@@H]1N[C@H](CNC(=O)c2ccc(Cl)c(Cl)c2)CCN(Cc2ccc(Cl)cc2Cl)C1=O` [Compound 502, N-(((3S,5S)-3-(2-aminoethyl)-1-(2,4-dichlorobenzyl)-2-oxo-1,4-diazepan-5-yl)methyl)-3,4-dichlorobenzamide], which IC50 is on record?
Answer: < 1 µM
